Measurements taken from patent publication US20130156845A1, “LIPID FORMULATED SINGLE STRANDED RNA” (ALNYLAM PHARMACEUTICALS, INC., priority 2010, published 2013).
Where two headings read alike, the source gives them in different places. Strand notation (5' to 3'): a small letter for the sugar, then the base; units joined by * are phosphorothioate-linked, units joined directly phosphodiester-linked; [ ] holds rarer units or linkages, { } end groups; capitals alone tell only the bases. [FEt-N] = nucleoside with 2'-OCH2CH2F (FEt) sugar (N: the base); [tcDNA-N] = tricyclo-DNA nucleoside (N: the base); [FEt] = thymidine with 2'-OCH2CH2F (FEt) sugar; e = 2'-O-(2-methoxyethyl) (MOE); m = 2'-O-methyl; r = 2'-OH (RNA); {P} = phosphate; f = 2'-fluoro

Assays:
[1] = Phosphate stability in mouse serum (Example 68)
Procedure: Single-stranded oligomeric compounds were tested for stability in mouse serum.

PTEN = PTEN mRNA reduction in HeLa cells, dose response (Example 72); type: cell-based, human; details: percent inhibition of PTEN mRNA, 0.167-50 nM
Procedure: In accordance with the present disclosure, oligomeric compounds were synthesized and tested for their ability to reduce PTEN expression over a range of doses. Human HeLa cells were treated with the following oligomeric compounds. A dose comparison was evaluated with dose concentrations of 0.167, 0.5, 1.5, 5, 15 and 50 nM using methods described herein. Expression levels of PTEN were determined using real-time PCR and normalized to RIBOGREEN™ using methods described herein. The percent inhibition of PTEN mRNA was determined and the resulting dose-response curves were used to determine the IC50. The IC50s are listed below.

human PTEN = assay: PTEN expression in HeLa cells, ssRNAs vs siRNAs (Example 62); type: cell-based
Procedure: A series of 5′ and 2′ bis-substituted modified oligomeric compounds were prepared as single strand RNAs (ssRNAs). The antisense (AS) strands listed below were designed to target human PTEN, and each was also assayed as part of a duplex with the same sense strand (ISIS 341401, shown below) for their ability to reduce PTEN expression levels. HeLa cells were treated with the single stranded or double stranded oligomeric compounds created with the antisense compounds shown below using methods described herein. The IC50's were calculated using the linear regression equation generated by plotting the normalized mRNA levels to the log of the concentrations used.

[2] = full compound with intact phosphorous moiety, first table
[3] = antisense strand duplexed with sense strand ISIS 341401, PTEN mRNA, read-out: EC50 (nM) siRNA

## 5′-Po-ThUfoGfoUfoCfoUfoCfoUfoGfoGfoUfoCfoCfoUfsUfsAfsCfsUfsUfsAesAe (antisense TUGUCUCUGGUCCUUACUUAA; 5'-phosphate, 2'-F, MOE modifications, chemistry not fully specified) [ISIS 440141]
[1]; four compounds tested separately, second table
  T1/2 full length: 0.3 h

## 5′-Po-TjUfoGfoUfoCfoUfoCfoUfoGfoGfoUfoCfoCfoUfsUfsAfsCfsUfsUfsAesAe (antisense {P}-[tcDNA-T]fUfGfUfCfUfCfUfGfGfUfCfCfU*fU*fA*fC*fU*fU*eA*eA) [ISIS 418130]
[1]; [2]
  T1/2 full length: 5.3 h

## 5′-Po-UiUfoGfoUfoCfoUfoCfoUfoGfoGfoUfoCfoCfoUfsUfsAfsCfsUfsUfsAesAe (antisense UUGUCUCUGGUCCUUACUUAA; 5'-phosphate, N-methoxyamino BNA, 2'-F, MOE modifications, chemistry not fully specified) [ISIS 418129]
[1]; [2]
  T1/2 full length: 5.4 h

## 5′-Ps-UdUfoGfoUfoCfoUfoCfoUfoGfoGfoUfoCfoCfoUfsUfsAfsCfsUfsUf (antisense UUGUCUCUGGUCCUUACUU; 5'-thiophosphate, 2'-F modifications, chemistry not fully specified) [ISIS 430601]
[1]; [2]
  T1/2 full length: 3.7 h

## P-TUfGfUfCfUfCfUfGfGfUfCfCfUfUfAfCfUfUfAeAe (antisense TUGUCUCUGGUCCUUACUUAA; 5'-phosphate, chemical modifications, chemistry not fully specified) [ISIS 418131, modified ssRNA targeting PTEN]
PTEN
  IC50: 3.4 nM

## P-TdUfGfUfCfUfCfUfGfGfUfCfCfUfUfAfCfUfUfAeAe (antisense TUGUCUCUGGUCCUUACUUAA; chemistry not fully specified) [ISIS 435394, modified ssRNA targeting PTEN]
PTEN
  IC50: 18.1 nM

## P-TdUfGmUfCmUfCmUfGmGfUmCfCfUfUfAfCfUfUfAeAe (antisense TUGUCUCUGGUCCUUACUUAA; 5'-phosphate, chemical modifications, chemistry not fully specified) [ISIS 435399, modified ssRNA targeting PTEN]
PTEN
  IC50: 2 nM

## P-TeUfGfUfCfUfCfUfGfGfUfCfCfUfUfAfCfUfUfAeAe (antisense TUGUCUCUGGUCCUUACUUAA; sugars from the 5' end e1 f18 e2, 5' {P}, backbone not given here) [ISIS 418031, modified ssRNA targeting PTEN]
PTEN
  IC50: 3.9 nM

## P-TefUfGfUfCfUfCfUfGfGfUfCfCfUfUfAfCfUfUfAeAe (antisense TUGUCUCUGGUCCUUACUUAA; sugars from the 5' end [FEt]1 f18 e2, 5' {P}, backbone not given here; further chemistry not fully specified) [ISIS 418032, modified ssRNA targeting PTEN]
PTEN
  IC50: 2.9 nM

## P-TefUfGfUfCfUfCfUfGfGfUfCfCfUfUfAfCfUfUfAeAe (antisense {P}-[FEt-T]fUfGfUfCfUfCfUfGfGfUfCfCfU*fU*fA*fC*fU*fU*eA*eA) [ISIS 418033, modified ssRNA targeting PTEN]
PTEN
  IC50: 11 nM

## P-UeUfGfUfCfUfCfUfGfGfUfCfCfUfUfAfCfUfUfAeAe (antisense UUGUCUCUGGUCCUUACUUAA; sugars from the 5' end e1 f18 e2, 5' {P}, backbone and T or U not given here) [ISIS 418030, modified ssRNA targeting PTEN]
PTEN
  IC50: 8.5 nM

## P-UfUfGfUfCfUfCfUfGfGfUfCfCfUfUfAfCfUfUf (antisense {P}-fUfUfGfUfCfUfCfUfGfGfUfC*fC*fU*fU*fA*fC*fU*fU) [ISIS 386187, modified ssRNA targeting PTEN]
Human PTEN; [3]
  EC50: 0.3 nM
Human PTEN; single stranded antisense compound, PTEN mRNA, read-out: EC50 (nM) ssRNA
  EC50: 15 nM

## P-UmUfGmUfCmUfCmUfGmGfUmCfCmUfUmAfCmUfUmAeAe (antisense UUGUCUCUGGUCCUUACUUAA; sugars from the 5' end mfmfmfmfmfmfmfmfmfmee, 5' {P}, backbone not given here) [ISIS 414291, modified ssRNA targeting PTEN]
PTEN; listed as 414291
  IC50: 13 nM

## P-UmUfGmUfCmUfCmUfGmGfUmCfCmUfUmAfCmUfUmAeAe (antisense UUGUCUCUGGUCCUUACUUAA; sugars from the 5' end mfmfmfmfmfmfmfmfmfmee, 5' {P}, backbone not given here) [ISIS 416598, modified ssRNA targeting PTEN]
PTEN; listed as 416598
  IC50: 6.8 nM

## Pz-^meUhUfGmUfCmUfCmUfGmGfUmCfCmUfUmAfCmUfUmAeAe (antisense UUGUCUCUGGUCCUUACUUAA; 5'-difluoromethylenephosphonate, 2'-F/2'-OMe alternating, MOE 3' end, first nucleoside modification undefined, further chemistry not given here) [ISIS 460646, modified ssRNA targeting PTEN, 5′-difluoromethylenephosphonate]
Human PTEN; [3]
  EC50: 0.8 nM

## Pz-^meUmUfGmUfCmUfCmUfGmGfUmCfCmUfUmAfCmUfUmAeAe (antisense UUGUCUCUGGUCCUUACUUAA; 5'-difluoromethylenephosphonate, 2'-F/2'-OMe alternating, MOE 3' end, first nucleoside modification undefined, further chemistry not given here) [ISIS 462606, modified ssRNA targeting PTEN, 5′-difluoromethylenephosphonate]
Human PTEN; antisense strand duplexed with sense strand ISIS 341401, PTEN mRNA, listed as 462606 (AS), read-out: EC50 (nM) siRNA
  EC50: 0.4 nM

## Pz-^meUmUfGmUfCmUfCmUfGmGfUmCfCmUfUmAfCmUfUmAeAe (antisense UUGUCUCUGGUCCUUACUUAA; 5'-difluoromethylenephosphonate, 2'-F/2'-OMe alternating, MOE 3' end, first nucleoside modification undefined, further chemistry not given here) [ISIS 462607, modified ssRNA targeting PTEN, 5′-difluoromethylenephosphonate]
Human PTEN; antisense strand duplexed with sense strand ISIS 341401, PTEN mRNA, listed as 462607 (AS), read-out: EC50 (nM) siRNA
  EC50: 1 nM

## UUGUCUCUGGUCCUUACUU (rUrUrGrUrCrUrCrUrGrGrUrC*rC*rU*rU*rA*rC*rU*rU) [ISIS 359455, unmodified RNA antisense strand targeting PTEN]
Human PTEN; [3]
  EC50: 0.3 nM
